Assay results: paper PMC12655527, “An Investigational Study on the Role of ADME Agents’ Genetic Variation on DD217 Pharmacokinetics and Safety Profile” (Pharmaceuticals, 2025)
Values joined by “and” are separate entries in the source; they are usually repeats but may differ in a detail not shown here. Identical values can stand only once. Like-named read-outs stand apart in the source and are kept apart here.

Assay: Pharmacokinetic parameters (Tmax, AUClast, Cmax) of DD217 in phase II trial patients
Assay type: in vivo, human (patients undergoing knee replacement surgery)
Parameters: AUClast (area under the concentration-time curve up to the last measurable point) / Cmax (maximum plasma concentration): unit not given here
Conditions: for AUC(0-t) / Cmax / Tmax: human, plasma, oral; for AUClast (area under the concentration-time curve up to the last measurable point) / Cmax (maximum plasma concentration) / Tmax (time to maximum plasma concentration): individual patients
Description: The design, eligibility criteria, and outcomes of the phase II clinical trial evaluating the safety and tolerability of DD217 (NCT05189002, ClinicalTrials.gov) have been described previously. Briefly, this was a multicenter, double-blind, randomized, prospective phase II study designed to determine the optimal dosing regimen and to assess the safety and efficacy of DD217 for the prevention of venous thromboembolism (VTE) in patients undergoing knee replacement surgery. Patients were randomized into one of three groups: two groups received oral DD217 at doses of 40 mg or 60 mg once daily, starting on the morning of the first postoperative day, and one group received the active comparator, dalteparin sodium. The treatment duration was 14 days.
In total, data from 52 patients who underwent knee replacement surgery were included in the analysis. Of these, 34 patients received DD217 at daily doses of 40 mg (n = 16) or 60 mg (n = 18), and 18 patients received dalteparin sodium.
To characterize the pharmacokinetic profile of DD217 in our study, three parameters were assessed: Cmax, Tmax, and AUClast.

CC(=N)N(C)c1ccc(C(=O)Nc2ccc(C)cc2C(=O)Nc2ccc(Cl)cn2)cc1.Cl [DD217, N-(5-chloropyridin-2-yl)-5-methyl-2-[4-(N-methylacetimidamido)benzamido]benzamide hydrochloride]
AUC(0-t) (40 mg, CYP2C19 *1/*17, *17/*17, RM + UM (n = 9), mean ± SD, read-out: AUClast): 47.7 ± 42.6 ng·h/mL
Cmax (40 mg, CYP2C19 *1/*17, *17/*17, RM + UM (n = 9), mean ± SD, read-out: Cmax): 5.8 ± 6.73 ng/mL
Tmax (40 mg, CYP2C19 *1/*17, *17/*17, RM + UM (n = 9), mean ± SD, read-out: Tmax): 7.67 ± 6.71 h
AUC(0-t) (40 mg, CYP3A *1/*1, EM (n = 12), mean ± SD, read-out: AUClast): 40 ± 42.1 ng·h/mL
Cmax (40 mg, CYP3A *1/*1, EM (n = 12), mean ± SD, read-out: Cmax): 5.02 ± 6.92 ng/mL
Tmax (40 mg, CYP3A *1/*1, EM (n = 12), mean ± SD, read-out: Tmax): 11.8 ± 9.5 h
AUC(0-t) (60 mg/day, ABCB1 rs1045642 C/C (n 3), read-out: AUClast (SD)): 197 ng·h/mL
Cmax (60 mg/day, ABCB1 rs1045642 C/C (n 3), read-out: Cmax (SD)): 15.9 ng/mL
Tmax (60 mg/day, ABCB1 rs1045642 C/C (n 3), read-out: Tmax (SD)): 2 h
AUC(0-t) (60 mg/day, ABCB1 rs1045642 T/C (n 8), read-out: AUClast (SD)): 53.9 ng·h/mL
Cmax (60 mg/day, ABCB1 rs1045642 T/C (n 8), read-out: Cmax (SD)): 5.54 ng/mL
Tmax (60 mg/day, ABCB1 rs1045642 T/C (n 8), read-out: Tmax (SD)): 7.75 h
AUC(0-t) (60 mg/day, ABCB1 rs1045642 T/T (n 7), read-out: AUClast (SD)): 27.6 ng·h/mL
Cmax (60 mg/day, ABCB1 rs1045642 T/T (n 7), read-out: Cmax (SD)): 2.42 ng/mL
Tmax (60 mg/day, ABCB1 rs1045642 T/T (n 7), read-out: Tmax (SD)): 13.6 h
AUC(0-t) (60 mg/day, ABCB1 rs1128503 C/C (n 4), read-out: AUClast (SD)): 164 ng·h/mL
Cmax (60 mg/day, ABCB1 rs1128503 C/C (n 4), read-out: Cmax (SD)): 14.1 ng/mL
Tmax (60 mg/day, ABCB1 rs1128503 C/C (n 4), read-out: Tmax (SD)): 2 h
AUC(0-t) (60 mg/day, ABCB1 rs1128503 T/C (n 10), read-out: AUClast (SD)): 50.5 ng·h/mL
Cmax (60 mg/day, ABCB1 rs1128503 T/C (n 10), read-out: Cmax (SD)): 4.66 ng/mL
Tmax (60 mg/day, ABCB1 rs1128503 T/C (n 10), read-out: Tmax (SD)): 9 h
AUC(0-t) (60 mg/day, ABCB1 rs1128503 T/T (n 4), read-out: AUClast (SD)): 14 ng·h/mL
Cmax (60 mg/day, ABCB1 rs1128503 T/T (n 4), read-out: Cmax (SD)): 1.49 ng/mL
Tmax (60 mg/day, ABCB1 rs1128503 T/T (n 4), read-out: Tmax (SD)): 16.2 h
AUC(0-t) (60 mg/day, ABCB1 rs2032582 G/G (n 4), read-out: AUClast (SD)): 164 ng·h/mL
Cmax (60 mg/day, ABCB1 rs2032582 G/G (n 4), read-out: Cmax (SD)): 14.1 ng/mL
Tmax (60 mg/day, ABCB1 rs2032582 G/G (n 4), read-out: Tmax (SD)): 2 h
AUC(0-t) (60 mg/day, ABCB1 rs2032582 T/G (n 9), read-out: AUClast (SD)): 51.6 ng·h/mL
Cmax (60 mg/day, ABCB1 rs2032582 T/G (n 9), read-out: Cmax (SD)): 4.87 ng/mL
Tmax (60 mg/day, ABCB1 rs2032582 T/G (n 9), read-out: Tmax (SD)): 9.56 h
AUC(0-t) (60 mg/day, ABCB1 rs2032582 T/T (n 5), read-out: AUClast (SD)): 19.4 ng·h/mL
Cmax (60 mg/day, ABCB1 rs2032582 T/T (n 5), read-out: Cmax (SD)): 1.74 ng/mL
Tmax (60 mg/day, ABCB1 rs2032582 T/T (n 5), read-out: Tmax (SD)): 13.8 h
AUC(0-t) (60 mg/day, ABCB1 rs4148738 C/C (n 5), read-out: AUClast (SD)): 18.9 ng·h/mL
Cmax (60 mg/day, ABCB1 rs4148738 C/C (n 5), read-out: Cmax (SD)): 1.78 ng/mL
Tmax (60 mg/day, ABCB1 rs4148738 C/C (n 5), read-out: Tmax (SD)): 10.6 h
AUC(0-t) (60 mg/day, ABCB1 rs4148738 C/T (n 9), read-out: AUClast (SD)): 51.9 ng·h/mL
Cmax (60 mg/day, ABCB1 rs4148738 C/T (n 9), read-out: Cmax (SD)): 4.85 ng/mL
Tmax (60 mg/day, ABCB1 rs4148738 C/T (n 9), read-out: Tmax (SD)): 11.3 h
AUC(0-t) (60 mg/day, ABCB1 rs4148738 T/T (n 4), read-out: AUClast (SD)): 164 ng·h/mL
Cmax (60 mg/day, ABCB1 rs4148738 T/T (n 4), read-out: Cmax (SD)): 14.1 ng/mL
Tmax (60 mg/day, ABCB1 rs4148738 T/T (n 4), read-out: Tmax (SD)): 2 h
AUC(0-t) (60 mg, CYP2C8 rs10509681 T/C (n 2), read-out: AUClast (SD)): 62.5 ng·h/mL
Cmax (60 mg, CYP2C8 rs10509681 T/C (n 2), read-out: Cmax (SD)): 5.69 ng/mL
Tmax (60 mg, CYP2C8 rs10509681 T/C (n 2), read-out: Tmax (h, SD)): 3 h
AUC(0-t) (60 mg, CYP2C8 rs10509681 T/T (n 16), read-out: AUClast (SD)): 68.2 ng·h/mL
Cmax (60 mg, CYP2C8 rs10509681 T/T (n 16), read-out: Cmax (SD)): 6.11 ng/mL
Tmax (60 mg, CYP2C8 rs10509681 T/T (n 16), read-out: Tmax (h, SD)): 9.81 h
AUC(0-t) (60 mg, CYP2C8 rs11572080 C/C (n 16), read-out: AUClast (SD)): 68.2 ng·h/mL
Cmax (60 mg, CYP2C8 rs11572080 C/C (n 16), read-out: Cmax (SD)): 6.11 ng/mL
Tmax (60 mg, CYP2C8 rs11572080 C/C (n 16), read-out: Tmax (h, SD)): 9.81 h
AUC(0-t) (60 mg, CYP2C8 rs11572080 C/T (n 2), read-out: AUClast (SD)): 62.5 ng·h/mL
Cmax (60 mg, CYP2C8 rs11572080 C/T (n 2), read-out: Cmax (SD)): 5.69 ng/mL
Tmax (60 mg, CYP2C8 rs11572080 C/T (n 2), read-out: Tmax (h, SD)): 3 h
AUC(0-t) (60 mg, CYP2C9 *1/*1, NM (n = 11), mean ± SD, read-out: AUClast): 37.5 ± 42.4 ng·h/mL
Cmax (60 mg, CYP2C9 *1/*1, NM (n = 11), mean ± SD, read-out: Cmax): 3.66 ± 4.07 ng/mL
Tmax (60 mg, CYP2C9 *1/*1, NM (n = 11), mean ± SD, read-out: Tmax): 12.9 ± 9.14 h
AUC(0-t) (60 mg, CYP2C9 *2/*3, PM (n = 2), mean ± SD, read-out: AUClast): 177 ± 224 ng·h/mL
Cmax (60 mg, CYP2C9 *2/*3, PM (n = 2), mean ± SD, read-out: Cmax): 11.3 ± 13.6 ng/mL
Tmax (60 mg, CYP2C9 *2/*3, PM (n = 2), mean ± SD, read-out: Tmax): 2.5 ± 2.12 h
AUC(0-t) (60 mg, CYP2C19 *1/*1, NM (n = 8), mean ± SD, read-out: AUClast): 98 ± 124 ng·h/mL
Cmax (60 mg, CYP2C19 *1/*1, NM (n = 8), mean ± SD, read-out: Cmax): 8.44 ± 9.71 ng/mL
Tmax (60 mg, CYP2C19 *1/*1, NM (n = 8), mean ± SD, read-out: Tmax): 8.75 ± 10.1 h
AUC(0-t) (60 mg, CYP2C19 *1/*17, RM (n = 6), mean ± SD, read-out: AUClast): 50.5 ± 51.6 ng·h/mL
Cmax (60 mg, CYP2C19 *1/*17, RM (n = 6), mean ± SD, read-out: Cmax): 4.5 ± 4.61 ng/mL
Tmax (60 mg, CYP2C19 *1/*17, RM (n = 6), mean ± SD, read-out: Tmax): 9.17 ± 7.33 h
AUC(0-t) (60 mg, CYP3A *1/*1, EM (n = 16), mean ± SD, read-out: AUClast): 52.7 ± 63.3 ng·h/mL
Cmax (60 mg, CYP3A *1/*1, EM (n = 16), mean ± SD, read-out: Cmax): 5.32 ± 6.58 ng/mL
Tmax (60 mg, CYP3A *1/*1, EM (n = 16), mean ± SD, read-out: Tmax): 9.75 ± 8.93 h
AUClast (area under the concentration-time curve up to the last measurable point) (40 mg/day oral): 39.7 and 128.526 and 20.601 and 13.049 and 18.213 and 10.234 and 34.56 and 101.166 and 120.462 and 21.211 and 2.735 and 84.631 and 10.412 and 4.928 and 48.451 and 17.602
Cmax (maximum plasma concentration) (40 mg/day oral): 3.95 and 22.764 and 1.686 and 1.136 and 1.739 and 0.656 and 5.76 and 15.011 and 19.462 and 3.535 and 0.456 and 5.034 and 0.72 and 0.405 and 3.119 and 1.379
Tmax (time to maximum plasma concentration) (40 mg/day oral): 1 h and 12 h
AUClast (area under the concentration-time curve up to the last measurable point) (60 mg/day oral): 19.08 and 237.522 and 35.852 and 16.597 and 21.462 and 105.854 and 58.513 and 4.589 and 25.375 and 51.929 and 37.407 and 14.483 and 13.976 and 62.698 and 11.57 and 152.359 and 11.552 and 335.306
Cmax (maximum plasma concentration) (60 mg/day oral): 1.663 and 25.28 and 3.324 and 1.155 and 1.59 and 9.707 and 7.329 and 0.325 and 2.291 and 4.963 and 2.974 and 1.614 and 1.37 and 8.694 and 1.712 and 13.569 and 0.613 and 20.897
Tmax (time to maximum plasma concentration) (60 mg/day oral): 1 h and 12 h and 5 h
